The target of the experiment is T1, human TMC6 protein (Homo sapiens, UniProt Q7Z403).
T1 construct: expressed in transfected cells; host or cells: CHO-K1
T1 sequence (Q7Z403 1-805): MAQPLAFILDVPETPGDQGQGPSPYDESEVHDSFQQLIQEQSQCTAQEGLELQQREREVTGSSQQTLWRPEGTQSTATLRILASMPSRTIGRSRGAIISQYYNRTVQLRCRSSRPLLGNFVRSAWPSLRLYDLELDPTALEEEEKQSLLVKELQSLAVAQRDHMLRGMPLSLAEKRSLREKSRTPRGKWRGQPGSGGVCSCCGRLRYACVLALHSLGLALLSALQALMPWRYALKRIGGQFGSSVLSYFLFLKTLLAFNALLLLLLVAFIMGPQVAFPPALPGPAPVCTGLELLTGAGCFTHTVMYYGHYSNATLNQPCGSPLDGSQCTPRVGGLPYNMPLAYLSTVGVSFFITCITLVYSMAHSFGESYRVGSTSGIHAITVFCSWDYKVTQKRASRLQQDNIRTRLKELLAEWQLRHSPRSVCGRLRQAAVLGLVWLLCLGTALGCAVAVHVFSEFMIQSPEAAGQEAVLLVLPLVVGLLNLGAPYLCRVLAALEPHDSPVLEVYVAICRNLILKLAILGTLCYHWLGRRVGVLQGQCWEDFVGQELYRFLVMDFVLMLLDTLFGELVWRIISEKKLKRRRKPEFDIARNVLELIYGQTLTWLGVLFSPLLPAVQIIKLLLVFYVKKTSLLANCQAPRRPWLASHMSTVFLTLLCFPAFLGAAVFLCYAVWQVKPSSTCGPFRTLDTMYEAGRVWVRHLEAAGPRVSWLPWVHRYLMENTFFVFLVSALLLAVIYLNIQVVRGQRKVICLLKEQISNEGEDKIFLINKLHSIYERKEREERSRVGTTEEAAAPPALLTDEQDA
The experiment is described as follows: Calcium imaging (YC2.60 FRET) of CHO-K1 cells expressing the human TMC6 gene. The experiment is classed as cell-based. Particulars: stimulation with high-concentration NaCl solution (135 mM NaCl). On the procedure: After the cultivation, the culture broth was removed. A low-concentration NaCl solution (27 mM NaCl, 1 mM KCl, 0.4 mM CaCl2, 0.2 mM MgCl2, 2 mM Hepes (pH7.3), 1 mM NaHCO3, 2 mM glucose, 2 mM sodium pyruvate, and 112 mM NMDG-Cl) was added to the culture dish, incubation was carried out statically for 5 min, and then, stimulation and observation of cells were started. First, the low-concentration NaCl solution was perfused for approximately 80 sec, to provide a ground state. […] The stimulation with the ATP stimulation solution was carried out by dropping 600 μL of the ATP stimulation solution near cells to be measured on the culture dish with a pipet within 3 sec.
Observation of the cells was carried out with a confocal laser microscope FV1200 (Olympus). […] Activation of the cells was measured using the intracellular calcium concentration as an index. The intracellular calcium concentration was measured by calcium imaging using YC2.60. YC2.60 is one of calcium-sensitive fluorescent proteins based on fluorescence resonance energy transfer (FRET). […] When calcium ions bind to YC2.60, FRET from CFP to YFP is induced, and thereby, CFP fluorescence is attenuated and YFP fluorescence is enhanced. That is, a higher intracellular calcium concentration provides a higher YFP/CFP value of a cell, which value represents the ratio of YFP fluorescence intensity with respect to CFP fluorescence intensity. […]

Molecules are shown by their SMILES.

From US10175228B2, “Method of using transmembrane channel-like protein 6 (TMC6) protein to identify substances affecting salty taste” (priority 2016, dated 2019) come the findings set out here.

Take `[Cl-].[Na+]` [NaCl, sodium chloride]: the “change of YFP/CFP value (intracellular calcium concentration, cell activation)” value is recorded as “increase”.
